The values below come from ChEMBL document CHEMBL5149999, “The Alkaloids from Lophophora diffusa and Other "False Peyotes"” (J Nat Prod, 2021).

In data set [1] the target is Sigma non-opioid intracellular receptor 1 (Homo sapiens, UniProt Q99720). Nature of the data set: Binding affinity to sigma 1 receptor (unknown origin) assessed as dissociation constant by competitive binding assay.
Data set [2] addresses Sigma intracellular receptor 2 (Homo sapiens, UniProt Q5BJF2). The data set is described as follows: Binding affinity to sigma 2 receptor (unknown origin) assessed as dissociation constant by competitive binding assay.
Data set [3] is described as follows: Acute toxicity in iv dosed mouse assessed as lethal dose incubated for 72 hrs. The settings on record: in vivo. The data set is classed as organism-based.
A short description of data set [4]: Acute toxicity in ip dosed mouse assessed as lethal dose incubated for 24 hrs. The data set is classed as organism-based. The settings on record: in vivo.
Data set [5] in a line: Acute toxicity in po dosed mouse assessed as lethal dose incubated for 72 hrs. The data set is classed as organism-based. The settings on record: in vivo.
Data set [6] is described as follows: Drug tolerance in sc dosed dog. The data set is classed as toxicity, organism-based, Canis lupus familiaris. The settings on record: in vivo.
The target in data set [7] is T1, Trace amine-associated receptor 1 (Homo sapiens, UniProt Q96RJ0).
T1 sequence (Q96RJ0 whole entry): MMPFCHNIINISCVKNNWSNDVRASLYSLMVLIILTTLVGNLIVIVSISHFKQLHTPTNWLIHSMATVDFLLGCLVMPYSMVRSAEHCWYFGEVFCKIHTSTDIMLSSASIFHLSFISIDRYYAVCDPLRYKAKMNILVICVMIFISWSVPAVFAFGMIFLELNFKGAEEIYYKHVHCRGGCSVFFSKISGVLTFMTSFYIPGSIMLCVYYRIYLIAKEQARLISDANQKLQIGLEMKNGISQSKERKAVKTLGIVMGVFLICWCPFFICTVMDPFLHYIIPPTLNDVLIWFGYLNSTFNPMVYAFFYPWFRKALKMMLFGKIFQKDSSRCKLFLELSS
The data set is described as follows: Agonist activity at human TAAR1 stably expressed in HEK293 cells incubated for 30 mins by cAMP assay. The data set is classed as functional, cell-based.

Data set [8] concerns the target Trace amine-associated receptor 1 (Rattus norvegicus, UniProt Q923Y9). The data set is described as follows: Agonist activity at rat TAAR1 stably expressed in HEK293 cells incubated for 30 mins by cAMP assay. The data set is classed as functional, cell-based.
The target of data set [9] is Trace amine-associated receptor 1 (Mus musculus, UniProt Q923Y8). The data set is described as follows: Agonist activity at mouse TAAR1 stably expressed in HEK293 cells incubated for 30 mins by cAMP assay. The data set is classed as functional, cell-based. Background: Cyclic AMP is a second messenger, typically raised through Gs and lowered through Gi signalling.
Trace amine-associated receptor 1 (Mus musculus, UniProt Q923Y8), sequence (Q923Y8 whole entry): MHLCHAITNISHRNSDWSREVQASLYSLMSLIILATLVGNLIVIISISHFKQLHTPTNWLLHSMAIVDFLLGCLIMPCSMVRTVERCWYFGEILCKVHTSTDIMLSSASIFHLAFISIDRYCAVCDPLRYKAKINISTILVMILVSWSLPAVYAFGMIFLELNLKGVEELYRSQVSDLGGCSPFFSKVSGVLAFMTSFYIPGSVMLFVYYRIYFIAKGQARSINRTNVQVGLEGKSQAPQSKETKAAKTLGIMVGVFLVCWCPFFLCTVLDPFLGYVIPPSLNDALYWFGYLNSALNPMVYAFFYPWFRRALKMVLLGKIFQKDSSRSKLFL

Sigma non-opioid intracellular receptor 1, sequence (Q99720 whole entry): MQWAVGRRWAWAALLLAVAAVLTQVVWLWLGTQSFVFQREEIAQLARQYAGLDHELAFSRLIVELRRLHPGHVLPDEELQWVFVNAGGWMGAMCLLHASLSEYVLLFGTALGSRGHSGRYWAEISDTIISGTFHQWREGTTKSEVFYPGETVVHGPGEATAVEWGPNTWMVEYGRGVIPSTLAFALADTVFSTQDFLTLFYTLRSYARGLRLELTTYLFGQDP
Sigma intracellular receptor 2, sequence (Q5BJF2 whole entry): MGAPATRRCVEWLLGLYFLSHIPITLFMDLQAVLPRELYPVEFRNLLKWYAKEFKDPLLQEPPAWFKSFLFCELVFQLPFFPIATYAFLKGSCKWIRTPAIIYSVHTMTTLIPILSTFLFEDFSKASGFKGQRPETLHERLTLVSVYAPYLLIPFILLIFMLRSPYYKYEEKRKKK
Trace amine-associated receptor 1 (Rattus norvegicus, UniProt Q923Y9), sequence (Q923Y9 whole entry): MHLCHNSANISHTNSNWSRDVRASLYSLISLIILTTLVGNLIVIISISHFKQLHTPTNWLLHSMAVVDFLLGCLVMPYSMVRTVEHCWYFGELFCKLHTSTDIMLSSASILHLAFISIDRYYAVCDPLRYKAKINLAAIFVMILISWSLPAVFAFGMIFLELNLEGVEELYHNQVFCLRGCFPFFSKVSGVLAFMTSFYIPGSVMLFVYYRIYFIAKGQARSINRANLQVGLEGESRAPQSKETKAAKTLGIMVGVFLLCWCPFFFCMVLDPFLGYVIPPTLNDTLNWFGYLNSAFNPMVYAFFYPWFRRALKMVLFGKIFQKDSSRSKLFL

By Kd is commonly meant a measure of binding affinity in units of concentration. Consider `CNCCc1ccc(O)cc1`, for which the Kd in data set [1] was 12400 nM; in [2], 6600 nM.
As usually defined, the LD50 is the dose expected to kill half of the subjects tested. Take `COc1cc2c(c(O)c1OC)C(C)N(C)CC2` (centres undefined): the LD50 at 72 h in data set [3] was determined as 52.2 mg/kg; in data set [5], 200 mg/kg. Further, the LD50 at 24 h in data set [4] was 115 mg/kg. The compound also displayed an Activity in data set [6] of 50 mg/kg.
For orientation: EC50 means the concentration that produces a half-maximal response. Consider `NCCc1ccc(O)cc1` [TYRAMINE], for which the EC50 worked out at 990 nM in data set [7], 30 nM in data set [8] and 280 nM in data set [9].
